The values below are quoted from earlier work in patent US6469022B1, “Method, compositions and kits for increasing the oral bioavailability of pharmaceutical agents” (Smith Kline Beecham, Corporation, priority 1997, dated 2002).

Entries after “also recorded” stand apart in the source; their conditions may differ.

The target in one series is P-glycoprotein (Homo sapiens, UniProt P08183).
For series [1] the following is noted: in vivo.
The conditions of series [2]: WO97/15269, Broder et al.
For series [3] the following is noted: oral administration.
The next series relates to metastatic breast cancer. Particulars: taxane-failure patients with metastatic breast cancer; continuous 96-hour infusion every three weeks.
Another series deals with tumour. Particulars: up to 160 mg/kg/day, Stuffness et al.

P-glycoprotein, sequence (P08183 whole entry): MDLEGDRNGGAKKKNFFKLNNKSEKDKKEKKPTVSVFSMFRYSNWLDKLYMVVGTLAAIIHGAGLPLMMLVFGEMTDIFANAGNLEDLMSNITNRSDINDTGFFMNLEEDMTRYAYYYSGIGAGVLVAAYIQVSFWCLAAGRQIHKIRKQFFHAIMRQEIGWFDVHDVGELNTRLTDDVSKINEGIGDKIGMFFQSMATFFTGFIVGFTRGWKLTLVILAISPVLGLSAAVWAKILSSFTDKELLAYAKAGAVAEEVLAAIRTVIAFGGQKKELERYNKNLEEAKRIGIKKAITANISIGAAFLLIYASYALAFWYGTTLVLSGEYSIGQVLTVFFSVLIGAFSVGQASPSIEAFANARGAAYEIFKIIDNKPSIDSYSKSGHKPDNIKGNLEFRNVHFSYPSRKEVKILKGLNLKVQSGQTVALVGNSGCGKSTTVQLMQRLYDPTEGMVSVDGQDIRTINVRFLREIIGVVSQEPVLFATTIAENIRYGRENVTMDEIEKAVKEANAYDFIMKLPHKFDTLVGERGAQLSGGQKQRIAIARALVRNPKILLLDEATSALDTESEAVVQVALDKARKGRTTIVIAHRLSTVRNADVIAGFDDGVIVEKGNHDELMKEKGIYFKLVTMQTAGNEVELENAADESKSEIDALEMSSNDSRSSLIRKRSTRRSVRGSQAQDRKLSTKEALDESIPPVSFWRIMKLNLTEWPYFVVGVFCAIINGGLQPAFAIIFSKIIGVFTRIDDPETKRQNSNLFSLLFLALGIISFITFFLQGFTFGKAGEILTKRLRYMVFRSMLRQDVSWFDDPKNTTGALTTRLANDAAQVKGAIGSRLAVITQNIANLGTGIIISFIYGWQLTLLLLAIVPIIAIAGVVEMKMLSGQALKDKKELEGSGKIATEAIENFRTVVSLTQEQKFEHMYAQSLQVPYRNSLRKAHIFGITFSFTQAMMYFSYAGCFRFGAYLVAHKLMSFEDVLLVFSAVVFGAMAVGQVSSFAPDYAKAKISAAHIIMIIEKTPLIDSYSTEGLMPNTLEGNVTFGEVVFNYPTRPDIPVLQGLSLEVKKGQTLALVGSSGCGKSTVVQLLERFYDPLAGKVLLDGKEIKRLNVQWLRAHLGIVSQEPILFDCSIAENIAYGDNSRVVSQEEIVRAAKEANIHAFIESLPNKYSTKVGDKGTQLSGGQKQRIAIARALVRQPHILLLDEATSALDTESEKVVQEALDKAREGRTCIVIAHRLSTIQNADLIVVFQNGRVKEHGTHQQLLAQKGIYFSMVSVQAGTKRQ

Turning to `COc1cc2c(cc1OC)CN(CCc1ccc(NC(=O)c3cccc4c(=O)c5cccc(OC)c5[nH]c34)cc1)CC2` [GF120918, 9,10-dihydro-5-methoxy-9oxo-N-[4-[2-(1,2,3,4-tetrahydro-6,7,-dimethoxy-2-isoquinolinyl)ethyl]phenyl]-4-acridinecarboxamide], the P-glycoprotein inhibition entry on P-glycoprotein is on record as “P-glycoprotein inhibitor”. Further, in series [1], the “bioavailability across the gut” value was “very poor bioavailability”.

Consider `OCCN(CCO)c1nc(N2CCCCC2)c2nc(N(CCO)CCO)nc(N3CCCCC3)c2n1` [dipyridamole], for which the oral bioavailability-enhancing activity entry in series [2] is on record as “less enhancing activity”.

Take `CC(=O)[C@H]1CC[C@H]2[C@@H]3CCC4=CC(=O)CC[C@]4(C)[C@H]3CC[C@]12C` [progesterone]: in series [2], the oral bioavailability-enhancing activity entry is “none”.

Take `CC(=O)N1CCN(c2ccc(OCC3COC(Cn4ccnc4)(c4ccc(Cl)cc4Cl)O3)cc2)CC1` (stereo not shown) [ketoconazole]: in series [2], the oral bioavailability-enhancing activity result was “significant”.

With `CC(=O)O[C@H]1C(=O)[C@@]2(C)[C@H]([C@H](OC(=O)c3ccccc3)[C@]3(O)C[C@H](OC(=O)[C@H](O)[C@@H](NC(=O)c4ccccc4)c4ccccc4)C(C)=C1C3(C)C)[C@]1(OC(C)=O)CO[C@@H]1C[C@@H]2O` [paclitaxel, 5β,20-epoxy-1,2α,4,7β,10β,13α-hexa-hydroxytax-11-en-9-one 4,10-diacetate 2-benzoate 13-ester with (2R,3S)-N-benzoyl-3-phenylisoserine], in the series on tubulin, the “level at which inhibition of tubulin disassembly occurs” value is reported as “about 0.1 μM; also recorded: about 85 ng/ml”. For the same molecule, the “level at which inhibition of protein isoprenylation occurs” value in the series on protein isoprenylation was “about 0.03 μM; also recorded: about 25 ng/ml”. For the same molecule, in series [3], the “absorbed when administered orally” value is “less than 1%”. In the series on metastatic breast cancer, the response rate is given as 27%. The “antitumour activity on oral administration” value in the series with tumour was “no evidence of antitumour activity”.
